These are literature values, as cited in patent US20230398069A1, “ETOPOSIDE TONIRIBATE FORMULATION” (CELLACT PHARMA GMBH, priority 2020, published 2023).

For this series the following is noted: API.

Turning to `COc1cc([C@@H]2c3cc4c(cc3[C@@H](O[C@@H]3O[C@@H]5CO[C@@H](C)O[C@H]5[C@@H](O)[C@H]3O)[C@H]3COC(=O)[C@H]23)OCO4)cc(OC)c1OC(=O)OCC1COC(C)(C)O1` (some centres unmarked) [Etoposide toniribate], the solubility in water entry is “poorly soluble in water”; the “stability at acidic and basic pH” value was “unstable at acidic and basic pH”.
